Where “and” joins values, the source holds several entries; their conditions need not be identical. Equal entries are not always repeated.
Key:
Details in all cases: incubation time: 72 h
BT-474 = assay: normalised viability (% of control), CellTiter-Blue; higher = more viable cells (about 100 = DMSO control)
Method: (§1)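 DSRT, CellTiter-Blue viability, 72 h incubation. Signal is normalised to DMSO and benzethonium chloride controls. Value is the normalised response at dose 3.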

BT-549 = assay: as above
Method: as §1

CAL-120 [1] = assay: as above
Method: as §1

CAL-148 [2] = assay: as above
Method: as §1

CAL-51 [3] = assay: as above
Method: as §1

CAL-85-1 [4] = assay: as above
Method: as §1

DU-4475 [5] = assay: as above
Method: as §1

HCC1143 = assay: as above
Method: as §1

HCC1599 = assay: as above
Method: as §1

HCC1937 = assay: as above
Method: as §1

HDQ-P1 [6] = assay: as above
Method: as §1

Hs578T = assay: as above
Method: as §1

MDA-MB-231 = assay: as above
Method: as §1

MDA-MB-436 = assay: as above
Method: as §1

MDA-MB-453 [7] = assay: as above
Method: as §1

MDA-MB-468 = assay: as above
Method: as §1

MFM-223 = assay: as above
Method: as §1

SK-BR-3 [8] = assay: as above
Method: as §1

CAL-148 [9] = assay: as above; remark: listed apart in the source
Method: (§2)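 DSRT, CellTiter-Blue viability, 72 h incubation. Signal is normalised to DMSO and benzethonium chloride controls. Value is the normalised response at dose 7.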

CAL-51 [10] = assay: as above; remark: listed apart in the source
Method: as §2

CAL-85-1 [11] = assay: as above; remark: listed apart in the source
Method: as §2

DU-4475 [12] = assay: as above; remark: listed apart in the source
Method: as §2

HDQ-P1 [13] = assay: as above; remark: listed apart in the source
Method: as §2

MDA-MB-453 [14] = assay: as above; remark: listed apart in the source
Method: as §2

CAL-148 [15] = assay: normalised viability (% of control), CellTiter-Blue; higher = more viable cells (about 100 = DMSO control); remark: listed apart in the source
Procedure, shortened: (§3)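 Breast cancer cell lines were treated for 72 h in 384-well format and measured by CellTiter-Blue fluorescence at 560/590 nm. Results were normalised per plate to vehicle (100) and a positive kill control (0). The entry is normalised viability at a single listed concentration of the series.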

CAL-51 [16] = assay: as above; remark: listed apart in the source
Procedure, shortened: as §3

CAL-85-1 [17] = assay: as above; remark: listed apart in the source
Procedure, shortened: as §3

CAL-120 [18] = assay: drug sensitivity score (DSS), CellTiter-Glo (DSS (AUC-based score)); higher = stronger drug effect (viability inhibition or cytotoxicity); extreme values may be limits of the assay
Procedure, shortened: (§4)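 After 72 h of incubation in 384-well plates with compound at 5 concentrations (10-fold steps, 10,000-fold range set per compound), breast cancer cell lines seeded in 20 µl suspension were read first for CellTox Green fluorescence at 485/520 nm. CellTiter-Glo luminescence was measured next, after 10 min at room temperature. Normalisation on each plate used 0.1 % DMSO and a positive kill control, and the drug sensitivity score was computed from the area under the fitted dose-response curve.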

CAL-51 [19] = assay: as above
Procedure, shortened: as §4

SK-BR-3 [20] = assay: as above
Procedure, shortened: as §4

CC(=O)Nc1cccc(-n2c(=O)n(C3CC3)c(=O)c3c(Nc4ccc(I)cc4F)n(C)c(=O)c(C)c32)c1
normalised viability (BT-474; 2.5 nM): 119%
normalised viability (BT-549; 2.5 nM): 104%
normalised viability (CAL-120 [1]; 2.5 nM): 99.4%
normalised viability (CAL-148 [2]; 0.25 nM): 107%
normalised viability (CAL-51 [3]; 0.25 nM): 90.4%
normalised viability (CAL-85-1 [4]; 0.25 nM): 97.3%
normalised viability (DU-4475 [5]; 0.25 nM): 101%
normalised viability (HCC1143; 2.5 nM): 86.7%
normalised viability (HCC1599; 2.5 nM): 84.6%
normalised viability (HCC1937; 2.5 nM): 102%
normalised viability (HDQ-P1 [6]; 0.25 nM): 103%
normalised viability (Hs578T; 2.5 nM): 94.9%
normalised viability (MDA-MB-231; 2.5 nM): 57.7%
normalised viability (MDA-MB-436; 2.5 nM): 92.8%
normalised viability (MDA-MB-453 [7]; 0.25 nM): 106%
normalised viability (MDA-MB-468; 2.5 nM): 105%
normalised viability (MFM-223; 2.5 nM): 90.6%
normalised viability (SK-BR-3 [8]; 2.5 nM): 92.7%
normalised viability (CAL-148 [9]; 25 nM): 91.2%
normalised viability (CAL-51 [10]; 25 nM): 69%
normalised viability (CAL-85-1 [11]; 25 nM): 60.4%
normalised viability (DU-4475 [12]; 25 nM): -0.2%
normalised viability (HDQ-P1 [13]; 25 nM): 63.6%
normalised viability (MDA-MB-453 [14]; 25 nM): 71.8%
normalised viability (CAL-148 [15]; 250 nM): 87.6%
normalised viability (CAL-51 [16]; 250 nM): 60.5%
normalised viability (CAL-85-1 [17]; 250 nM): 31.2%

O=C(O)CCCCC(CCSCc1ccccc1)SCc1ccccc1 (stereo not given) [CPI-613]
drug sensitivity score (CAL-120 [18]): 0
drug sensitivity score (CAL-51 [19]): 0
drug sensitivity score (SK-BR-3 [20]): 0

CC(=O)Nc1cccc(-n2c(=O)n(C3CC3)c(=O)c3c(Nc4ccc(I)cc4F)n(C)c(=O)c(C)c32)c1 [Trametinib]
drug sensitivity score (CAL-120 [18]): 5.16
drug sensitivity score (CAL-51 [19]): 0
drug sensitivity score (SK-BR-3 [20]): 0

Cc1cnc(NC(=O)Nc2cc(Br)c(C)cc2OC[C@@H]2CNCCO2)cn1
normalised viability (BT-474; 10 nM): 101%
normalised viability (BT-549; 10 nM): 87.3%
normalised viability (CAL-120 [1]; 10 nM): 87.9%
normalised viability (CAL-148 [2]; 1 nM): 90.3%
normalised viability (CAL-51 [3]; 1 nM): 95%
normalised viability (CAL-85-1 [4]; 1 nM): 91.4%
normalised viability (DU-4475 [5]; 1 nM): 90.8%
normalised viability (HCC1143; 10 nM): 82.5%
normalised viability (HCC1599; 10 nM): 122%
normalised viability (HCC1937; 10 nM): 127%
normalised viability (HDQ-P1 [6]; 1 nM): 90.1%
normalised viability (Hs578T; 10 nM): 101%
normalised viability (MDA-MB-231; 10 nM): 103%
normalised viability (MDA-MB-436; 10 nM): 112%
normalised viability (MDA-MB-453 [7]; 1 nM): 104%
normalised viability (MDA-MB-468; 10 nM): 104%
normalised viability (MFM-223; 10 nM): 89.6%
normalised viability (SK-BR-3 [8]; 10 nM): 88.3%
normalised viability (CAL-148 [9]; 100 nM): 101%
normalised viability (CAL-51 [10]; 100 nM): 91.2%
normalised viability (CAL-85-1 [11]; 100 nM): 85.9%
normalised viability (DU-4475 [12]; 100 nM): 109%
normalised viability (HDQ-P1 [13]; 100 nM): 110%
normalised viability (MDA-MB-453 [14]; 100 nM): 88.7%
normalised viability (CAL-148 [15]; 1000 nM): 56.7%
normalised viability (CAL-51 [16]; 1000 nM): 89.3%
normalised viability (CAL-85-1 [17]; 1000 nM): 68.3%

Cc1cnc(NC(=O)Nc2cc(Br)c(C)cc2OC[C@@H]2CNCCO2)cn1 [Rabusertib]
drug sensitivity score (CAL-120 [18]): 0
drug sensitivity score (CAL-51 [19]): 0
drug sensitivity score (SK-BR-3 [20]): 1.38

CC[C@H](C)C(=O)O[C@H]1C[C@H](O)C=C2C=C[C@H](C)[C@H](CC[C@@H](O)C[C@@H](O)CC(=O)O)[C@H]21 [Pravastatin]
drug sensitivity score (CAL-120 [18]): 2.92
drug sensitivity score (CAL-51 [19]): 14.4
drug sensitivity score (SK-BR-3 [20]): 4.87

O=C(/C=C/c1cccnc1)NCCCCC1CCN(C(=O)c2ccccc2)CC1 [Daporinad]
drug sensitivity score (CAL-120 [18]): 20.9
drug sensitivity score (CAL-51 [19]): 0
drug sensitivity score (SK-BR-3 [20]): 0

C=CC(=O)N1CCC[C@@H](n2nc(-c3ccc(Oc4ccccc4)cc3)c3c(N)ncnc32)C1 [Ibrutinib]
drug sensitivity score (CAL-120 [18]): 0
drug sensitivity score (CAL-51 [19]): 2.76
drug sensitivity score (SK-BR-3 [20]): 17.4

COc1cc2c(NC3CCN(C(C)C)CC3)nc(C3CCCCC3)nc2cc1OCCCN1CCCC1 [UNC0638]
drug sensitivity score (CAL-120 [18]): 6.05
drug sensitivity score (CAL-51 [19]): 7.71
drug sensitivity score (SK-BR-3 [20]): 6.09

CC[C@H](Nc1ncnc2[nH]cnc12)c1nc2cccc(F)c2c(=O)n1-c1ccccc1 [GS-1101]
drug sensitivity score (CAL-120 [18]): 1.34
drug sensitivity score (CAL-51 [19]): 0
drug sensitivity score (SK-BR-3 [20]): 0

NCCCNCCSP(=O)(O)O [Amifostine]
normalised viability (BT-474; 100 nM): 95.8%
normalised viability (BT-549; 100 nM): 103%
normalised viability (CAL-120 [1]; 100 nM): 90.4%
normalised viability (CAL-148 [2]; 10 nM): 93.5%
normalised viability (CAL-51 [3]; 10 nM): 105%
normalised viability (CAL-85-1 [4]; 10 nM): 90.7%
normalised viability (DU-4475 [5]; 10 nM): 97.3%
normalised viability (HCC1143; 100 nM): 78.3%
normalised viability (HCC1599; 100 nM): 98.2%
normalised viability (HCC1937; 100 nM): 85.5%
normalised viability (HDQ-P1 [6]; 10 nM): 105%
normalised viability (Hs578T; 100 nM): 79.1%
normalised viability (MDA-MB-231; 100 nM): 93.1%
normalised viability (MDA-MB-436; 100 nM): 107%
normalised viability (MDA-MB-453 [7]; 10 nM): 85.7%
normalised viability (MDA-MB-468; 100 nM): 102%
normalised viability (MFM-223; 100 nM): 77.7%
normalised viability (SK-BR-3 [8]; 100 nM): 108%
normalised viability (CAL-148 [9]; 1000 nM): 90.6%
normalised viability (CAL-51 [10]; 1000 nM): 109%
normalised viability (CAL-85-1 [11]; 1000 nM): 81.2%
normalised viability (DU-4475 [12]; 1000 nM): 82.7%
normalised viability (HDQ-P1 [13]; 1000 nM): 89.8%
normalised viability (MDA-MB-453 [14]; 1000 nM): 92.9%
normalised viability (CAL-148 [15]; 10000 nM): 95.2%
normalised viability (CAL-51 [16]; 10000 nM): 108%
normalised viability (CAL-85-1 [17]; 10000 nM): 89.9%

Nc1ncn([C@H]2C[C@H](O)[C@@H](CO)O2)c(=O)n1 [Decitabine]
normalised viability (BT-474; 100 nM): 87.1% and 95.7%
normalised viability (BT-549; 100 nM): 102% and 98.4%
normalised viability (CAL-120 [1]; 100 nM): 85.2% and 84.4%
normalised viability (CAL-148 [2]; 10 nM): 87.3% and 90%
normalised viability (CAL-51 [3]; 10 nM): 112% and 102%
normalised viability (CAL-85-1 [4]; 10 nM): 96% and 100%
normalised viability (DU-4475 [5]; 10 nM): 98.1% and 117%
normalised viability (HCC1143; 100 nM): 82.4% and 79.1%
normalised viability (HCC1599; 100 nM): 108% and 99.9%
normalised viability (HCC1937; 100 nM): 101% and 108%
normalised viability (HDQ-P1 [6]; 10 nM): 109% and 95.9%
normalised viability (Hs578T; 100 nM): 85.2% and 99.2%
normalised viability (MDA-MB-231; 100 nM): 86.7% and 95%
normalised viability (MDA-MB-436; 100 nM): 89.6% and 90.8%
normalised viability (MDA-MB-453 [7]; 10 nM): 90.9% and 113%
normalised viability (MDA-MB-468; 100 nM): 32.4% and 32.1%
normalised viability (MFM-223; 100 nM): 79% and 95.3%
normalised viability (CAL-148 [9]; 1000 nM): 75.2% and 75%
normalised viability (CAL-51 [10]; 1000 nM): 107% and 98.7%
normalised viability (CAL-85-1 [11]; 1000 nM): 78.2% and 89.6%
normalised viability (DU-4475 [12]; 1000 nM): 76.6% and 89.9%
normalised viability (HDQ-P1 [13]; 1000 nM): 87.1% and 88.9%
normalised viability (MDA-MB-453 [14]; 1000 nM): 96% and 103%
normalised viability (CAL-51 [16]; 10000 nM): 66.7% and 70.4%
drug sensitivity score (CAL-120 [18]): 0.811
drug sensitivity score (CAL-51 [19]): 3.54
drug sensitivity score (SK-BR-3 [20]): 0

CNC(=O)c1cc(Oc2ccc(NC(=O)Nc3cc(C(C)(C)C)nn3-c3ccc4ncccc4c3)c(F)c2)ccn1 [Rebastinib]
drug sensitivity score (CAL-120 [18]): 2.56
drug sensitivity score (CAL-51 [19]): 0
drug sensitivity score (SK-BR-3 [20]): 0

Reference: the supplement of paper PMC4862054
